From US20180110721A1, “TOPICAL COSMETIC COMPOSITIONS AGAINST FREE RADICALS” (THE BOOTS COMPANY PLC, priority 2015, published 2018)

Assay: Lipid Peroxidation (LPO) assay
Assay type: biochemical
Conditions: 2% linoleic acid + 1% trolox in methanol, solar simulator UV dose 36x10^4 J/m^2; FIG. 2 column 2, negative control
Excerpt: Lipids are present in the cell membrane bilayer. Peroxidation of lipids compromises the integrity of skin cells and […] the ageing process resulting in premature ageing. The LPO assay is designed to determine the level of LPO damage in the skin with and without external stresses such as UV exposure; and investigating whether early defence complex can protect against the UV induced LPO damage. K-assay LPO-CC004 lipid peroxidation kit (Kamiya biomedical company)˜500 assays containing— • Reagent 1 (liquid): Enzyme reagent (ascorbic oxidase, lipoprotein lipase, stabilizer, goods buffer, surfactants) • Reagent 2A: Lyophilised chromogen reagent (MCDP for 110 ml reagent 2B) • Reagent 2B: Buffer solution (liquid) (goods buffer, hemoglobin, surfactants) • Calibrator (liquid): (50 nmol/ml cumene hyderoperoxide) • D-squames (CuDerm Corp. Dalla, USA) • Linoleic acid (L.A) • Methanol (MeOH) • Deionised water (dH2O) • 96 well flat bottom clear plate • Plate reader Unless otherwise stated all the samples were prepared weight per volume in methanol. […] Absorbance was read at 675 nm. For each well, the methanol background reading was subtracted from the absorbance reading. […] As samples were run in triplicate, the mean of each sample was then calculated. […]

SMILES: Cc1c(C)c2c(c(C)c1O)CCC(C)(C(=O)O)O2 (stereo not shown) [Trolox]
- oxidation (lipid peroxidation, absorbance at 675 nm): very low oxidation
